In brackets after ≈: the same amount, converted by molar mass.
Key:
[1] = system: Candida albicans; experiment: microbe, parasite or virus in culture; conditions: ATCC 90028, ASSAY_TEST Inhibition of Fungal Growth, detection method Absorption (OD530), plate type 384well, NBS, CORNING #3640
Description: Antifungal activity against Candida albicans ATCC 90028 (CO-ADD:FG_001); MIC in YNB media using NBS plates, by OD630

[2] = system: HEK293; experiment: cells; format: functional; conditions: Homo sapiens, ATCC CRL1573, HEK293; ASSAY_TEST Inhibition of Cell Viability; detection method Resazurin; Fluorescence (ex560/em590); MEDIA DMEM with 10% FBS; plate type 384well; TC; CORNING #3712; time 18 hr
[3] = system: Pseudomonas aeruginosa; experiment: microbe, parasite or virus in culture; conditions: ATCC 27853, 18 h, ASSAY_TEST Inhibition of Bacterial Growth, detection method Absorption (OD600), MEDIA CAMHB, plate type 384well, NBS, CORNING #3640
Description: Antibacterial activity against Pseudomonas aeruginosa ATCC 27853 (CO-ADD:GN_042); MIC in CAMBH media using NBS plates, by OD(600)

[4] = system: Staphylococcus aureus; experiment: microbe, parasite or virus in culture; conditions: ATCC 43300, 18 h, ASSAY_TEST Inhibition of Bacterial Growth, detection method Absorption (OD600), MEDIA CAMHB, plate type 384well, NBS, CORNING #3640
Description: Antibacterial activity against Staphylococcus aureus MRSA ATCC 43300 (CO-ADD:GP_020); MIC in CAMBH media, using NBS plates, by OD(600)

[5] = system: Escherichia coli; experiment: microbe, parasite or virus in culture; conditions: ATCC 25922, 18 h, ASSAY_TEST Inhibition of Bacterial Growth, detection method Absorption (OD600), MEDIA CAMHB, plate type 384well, NBS, CORNING #3640
Description: Antibacterial activity against Escherichia coli ATCC 25922 (CO-ADD:GN_001); MIC in CAMBH media using NBS plates, by OD(600)

[6] = system: Acinetobacter baumannii; experiment: microbe, parasite or virus in culture; conditions: ATCC 19606, 18 h, ASSAY_TEST Inhibition of Bacterial Growth, detection method Absorption (OD600), MEDIA CAMHB, plate type 384well, NBS, CORNING #3640
Description: Antibacterial activity against Acinetobacter baumannii ATCC 19606 (CO-ADD:GN_034); MIC in CAMBH media using NBS plates, by OD600

[7] = system: Klebsiella pneumoniae; experiment: microbe, parasite or virus in culture; conditions: ATCC 700603, 18 h, ASSAY_TEST Inhibition of Bacterial Growth, detection method Absorption (OD600), MEDIA CAMHB, plate type 384well, NBS, CORNING #3640
Description: Antibacterial activity against Klebsiella pneumoniae MDR ATCC 70063 (CO-ADD:GN_003); MIC in CAMBH media using NBS plates, by OD(600)

[8] = system: Cryptococcus neoformans
Description: Antifungal activity against Cryptococcus neoformans H99 ATCC 208821 (CO-ADD:FG_002); MIC in YNB media using NBS plates, by Resazurin OD(600-570)

SMILES | MIC [1] [µg/mL] | CC50 [2] [µg/mL] | MIC [3] [µg/mL] | MIC [4] [µg/mL] | MIC [5] [µg/mL] | MIC [6] [µg/mL] | MIC [7] [µg/mL] | MIC [8] [µg/mL]
CC(=O)O[C@H]1C[C@@]2(C)C(C[C@@H](O)C3[C@@]4(C)CC[C@@H](OC(=O)CCCCCN)[C@@H](C)C4CC[C@@]32C)/C1=C(\CCC=C(C)C)C(=O)OCc1ccccc1 (some centres undefined) | 32 (≈ 44.4 µM) | 8.27 (≈ 11.5 µM) | > 32 | 16 (≈ 22.2 µM) | > 32 | > 32 | > 32 | 16 (≈ 22.2 µM)
CC(=O)O[C@H]1C[C@@]2(C)C(C[C@@H](O)C3[C@@]4(C)CC[C@@H](O)[C@@H](C)C4CC[C@@]32C)/C1=C(\CCC=C(C)C)C(=O)O/C(=N/C1CCCCC1)NC1CCCCC1 (some centres undefined) | > 32 | 19.9 (≈ 27.5 µM) | > 32 | 32 (≈ 44.3 µM) | > 32 | > 32 | > 32 | > 32
CC(=O)O[C@H]1C[C@@]2(C)C(C[C@@H](O)C3[C@@]4(C)CC[C@@H](OC(=O)C(N)Cc5ccccc5)[C@@H](C)C4CC[C@@]32C)/C1=C(\CCC=C(C)C)C(=O)OCc1ccccc1 (some centres undefined) | > 32 | > 32 | > 32 | > 32 | > 32 | > 32 | > 32 | > 32
CC(=O)O[C@H]1C[C@@]2(C)C(C[C@@H](O)C3[C@@]4(C)CC[C@@H](OC(=O)CN)[C@@H](C)C4CC[C@@]32C)/C1=C(\CCC=C(C)C)C(=O)OCc1ccccc1 (some centres undefined) | 32 (≈ 48.2 µM) | 10.8 (≈ 16.3 µM) | > 32 | > 32 | > 32 | > 32 | > 32 | 16 (≈ 24.1 µM)
CCN/C(=N\CCCN(C)C)OC(=O)/C(CCC=C(C)C)=C1/C2C[C@@H](O)C3[C@@]4(C)CC[C@@H](O)[C@@H](C)C4CC[C@]3(C)[C@@]2(C)C[C@@H]1OC(C)=O (some centres undefined) | > 32 | 15.4 (≈ 22.9 µM) | > 32 | 8 (≈ 11.9 µM) | > 32 | > 32 | > 32 | > 32
CC(=O)O[C@H]1C[C@@]2(C)C(C[C@@H](O)C3[C@@]4(C)CC[C@@H](O)[C@@H](C)C4CC[C@@]32C)/C1=C(\CCC=C(C)C)C(=O)On1nnc2ccc(Cl)cc21 (some centres undefined) | > 32 | > 32 | > 32 | ≤ 0.25 | > 32 | > 32 | > 32 | > 32
CC(=O)O[C@H]1C[C@@]2(C)C(C[C@@H](O)C3[C@@]4(C)CC[C@@H](OC(=O)c5ccccc5C(=O)O)[C@@H](C)C4CC[C@@]32C)/C1=C(\CCC=C(C)C)C(=O)OCc1ccccc1 (some centres undefined) | > 32 | 20.6 (≈ 27.3 µM) | > 32 | 32 (≈ 42.4 µM) | > 32 | > 32 | > 32 | > 32
CC(=O)O[C@H]1C[C@@]2(C)C(C[C@@H](O)C3[C@@]4(C)CC[C@@H](O)[C@@H](C)C4CC[C@@]32C)/C1=C(\CCC=C(C)C)C(=O)O (some centres undefined) | > 32 | > 32 | > 32 | ≤ 0.25 | > 32 | > 32 | > 32 | > 32
